Measured values published in patent publication US20230119806A1, “ANTIGEN SPECIFIC EPITOPE BASED ANTI-INFECTIVE VACCINES” (VAXIL BIOTHERAPEUTICS LTD., priority 2020, published 2023).

What was measured:
BALB/c and C57BL/6 mice = assay: ELISA of sera of mice immunized with signal peptides (antibody response); format: in vivo; details: for antibody response against VXL-301 (ELISA): VXL-301 coated plate; for antibody responses of immunized mice (ELISA, overall): summary of BALB/c and C57BL/6 ELISA results; for antibody response against VXL-303 (ELISA): VXL-303 coated plate
Method: (§1) BALB/c and C57BL/6 mice were immunized by subcutaneous (SC) injections with 100 μg of individual SPs or a SP mixture and with intraperitoneal injections of 100 ng of mouse granulocyte macrophage colony stimulating factor (mGM-CSF) three times at 7-day intervals.
To monitor if antibody response was developed against the SPs an enzyme-linked immunosorbent assay (ELISA) was performed with sera obtained on days 10 and 20 post the last immunization when VXL-301, or VXL-302, or VXL-303 or VXL-201c (negative control) were coated on the ELISA plate.

[1] = test system: splenocytes of immunized C57BL/6 mice; assay: ELISpot of interleukin 2 after SP stimulation of splenocytes; format: cell-based; details: SP stimulation of splenocytes of immunized C57BL/6 mice
Method: as §1

[2] = test system: splenocytes of immunized BALB/c mice; assay: ELISpot of interferon gamma after SP stimulation of splenocytes; format: cell-based
Method: as §1

[3] = test system: Peripheral blood mononuclear cells (PBMCs) from healthy donors; assay: Ex vivo immunogenicity: proliferation of PBMCs stimulated by SP-loaded autologous dendritic cells; format: cell-based; details: healthy donor PBMCs; for proliferation in CD4+ and CD8+ T cells / proliferation versus positive control SPs: SP-loaded autologous DCs
Method: Immunogenicity is assessed by quantifying proliferation of T cells in response to exposure to peptides. To this end, healthy donor peripheral blood mononuclear cells (PBMCs) are marked by a fluorescent dye and exposed to either the naked peptide or to autologous antigen presenting cells (APCs) pre-loaded with the SP. Phytohaemagglutinin (PHA), or tetanus toxoid, (TT), or previously tested SPs, serve as a positive control for maximum stimulation. Unloaded APCs, or medium, or human Fab fragments serve as negative controls. Proliferation is calculated by the increase of CD3+ T cells and the fraction of cells with different number of cell divisions assessed by flow cytometry.
Peripheral blood mononuclear cells (PBMCs) from healthy donors were stimulated by SP-loaded autologous dendritic cells (DCs).

[4] = BALB/c mice, sera day 10 post last immunization, 100 μg SC + mGM-CSF, three times
[5] = C57BL/6 mice, sera day 20 post last immunization

Sequence | antibody response against VXL-301 (ELISA) (BALB/c and C57BL/6 mice; [4]) | antibody response against VXL-301 (ELISA) (BALB/c and C57BL/6 mice; [5]) | antibody responses of immunized mice (ELISA, overall) (BALB/c and C57BL/6 mice) | secretion of interleukin 2 (ELISpot) [1] | secretion of interferon gamma (ELISpot) [2] | proliferation versus unloaded DCs (non-specific proliferation) [3] | proliferation in CD4+ and CD8+ T cells [3] | proliferation versus positive control SPs [3] | antibody response against VXL-303 (ELISA) (BALB/c and C57BL/6 mice; [4]) | antibody response against VXL-303 (ELISA) (BALB/c and C57BL/6 mice; [5])
MFVFLVLLPLVSSQC [VXL-301] | greatest antibody response | highest antibody responses | demonstrated antibody responses | induced secretion of interleukin 2 primarily in the VXL-301- and the SP mixture-immunized groups | induced secretion of interferon gamma primarily in the VXL-301- and the SP mixture-immunized groups | proliferation that was greater than unloaded DCs | evident in both CD4+ cytotoxic T cells and CD8+ helper T cells | comparable to the levels observed for positive control SPs |  | 
MKFLVFLGIITTVAA [VXL-303] |  |  | demonstrated antibody responses | induced secretion of interleukin 2 primarily in the VXL-303- and the SP mixture-immunized groups | induced secretion of interferon gamma primarily in the VXL-303- and the SP mixture-immunized groups | proliferation that was greater than unloaded DCs | evident in both CD4+ cytotoxic T cells and CD8+ helper T cells | comparable to the levels observed for positive control SPs | greatest antibody response | highest antibody responses
MKIILFLALITLATC [VXL-302, signal peptide of SARS-CoV-2 ORF7a] |  |  |  | induced secretion of interleukin 2 primarily in the VXL-302-immunized group | induced secretion of interferon gamma primarily in the VXL-302 immunized group | proliferation that was greater than unloaded DCs | evident in both CD4+ cytotoxic T cells and CD8+ helper T cells | comparable to the levels observed for positive control SPs |  | 
